Test results taken from PubChem BioAssay (NCI).
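Each compound was tested at five concentrations against cells in 96-well plates for 48 hours. Definition used: TGI = concentration required for complete inhibition of growth.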

How the values were obtained:
Experiment in all cases: NCI tumour cell line growth inhibition, 48 h
PC-3 prostate = system: PC-3 prostate
SK-MEL-28 melanoma = system: SK-MEL-28 melanoma
MDA-MB-231 breast = system: MDA-MB-231 breast
ACHN renal = system: ACHN renal
SNB-75 CNS = system: SNB-75 CNS
KM12 colon = system: KM12 colon
SF-268 CNS = system: SF-268 CNS
M14 melanoma = system: M14 melanoma
HCC-2998 colon = system: HCC-2998 colon
SK-MEL-5 melanoma = system: SK-MEL-5 melanoma
HCT-15 colon = system: HCT-15 colon
RPMI-8226 leukemia = system: RPMI-8226 leukemia
SF-295 CNS = system: SF-295 CNS
786-0 renal = system: 786-0 renal
EKVX NSCLC = system: EKVX NSCLC
A549 NSCLC = system: A549 NSCLC
NCI-H460 lung = system: NCI-H460 lung
U251 CNS = system: U251 CNS
MCF7 breast = system: MCF7 breast
NCI-H23 lung = system: NCI-H23 lung
SW-620 colon = system: SW-620 colon
HT29 colon = system: HT29 colon
DU-145 prostate = system: DU-145 prostate
UACC-257 melanoma = system: UACC-257 melanoma
CAKI-1 renal = system: CAKI-1 renal
OVCAR-5 ovarian = system: OVCAR-5 ovarian
MOLT-4 leukemia = system: MOLT-4 leukemia
K-562 leukemia = system: K-562 leukemia
SK-MEL-2 melanoma = system: SK-MEL-2 melanoma
NCI/ADR-RES ovarian = system: NCI/ADR-RES ovarian
CCRF-CEM leukemia = system: CCRF-CEM leukemia
COLO 205 colon = system: COLO 205 colon
OVCAR-8 ovarian = system: OVCAR-8 ovarian
NCI-H522 lung = system: NCI-H522 lung
HL-60(TB) leukemia = system: HL-60(TB) leukemia
SR leukemia = system: SR leukemia
IGROV1 ovarian = system: IGROV1 ovarian
MDA-MB-435 = system: MDA-MB-435
SN12C renal = system: SN12C renal
BT-549 breast = system: BT-549 breast
LOX IMVI melanoma = system: LOX IMVI melanoma
HOP-92 NSCLC = system: HOP-92 NSCLC
SNB-19 CNS = system: SNB-19 CNS
HOP-62 NSCLC = system: HOP-62 NSCLC
MALME-3M melanoma = system: MALME-3M melanoma
TK-10 renal = system: TK-10 renal
HCT-116 colon = system: HCT-116 colon
SK-OV-3 ovarian = system: SK-OV-3 ovarian
NCI-H226 lung = system: NCI-H226 lung
A498 renal = system: A498 renal
UO-31 renal = system: UO-31 renal
SF-539 CNS = system: SF-539 CNS
RXF 393 renal = system: RXF 393 renal
OVCAR-4 ovarian = system: OVCAR-4 ovarian
HS 578T breast = system: HS 578T breast

Measured: TGI

O=C(NCCn1ccnn1)Nc1ccccc1
not listed: HCT-116 colon | SK-OV-3 ovarian | NCI-H226 lung | A498 renal | UO-31 renal | SF-539 CNS | RXF 393 renal | OVCAR-4 ovarian | HS 578T breast
> 100 µM: all other assays above

COc1cc(C(=O)O[C@H]2CCC3CCC2N3C)cc(OC)c1OC (stereo not given in full)
not listed: PC-3 prostate | CAKI-1 renal | SK-MEL-2 melanoma | NCI-H522 lung | IGROV1 ovarian | BT-549 breast
> 100 µM: all other assays above
